Measurements as given in patent US20080113003A1, “Sinapic Acid Supplementation” (UNIVERSITY OF SASKATCHEWAN, priority 2004, published 2008).
Marks after values point to notes of the source that are not given here.

What was measured:
[1] = Example 1: performance of broiler chickens on dietary sinapic acid (gain, feed intake, gain/feed); assay type: in vivo; conditions: 0-18 d of age
Text: Bird management. Broilers were housed in battery brooders.

[2] = Example 1: apparent nutrient digestibility (AME, ileal and fecal protein); assay type: in vivo, broiler chickens; conditions: for AME (apparent metabolizable energy): excreta 16-18 d
Protocol: (§1) Sample Analyses. Acid insoluble ash (AIA, Celite) was used as an indigestible marker for the determination of the apparent digestibility of metabolizable energy, protein (ileal and fecal) and SA. AIA was determined by using the procedure of Vogtmann et al, 1975 Br. Poult. Sci. 67:641-646. The gross energy was measured by a traditional bomb calorimeter, and crude protein was analyzed by a Leco FP-528™ protein analyzer (Model No. 601-500-100, Serial#3211, LECO Corporation, 3000 Lakeview Avenue, St. Joseph Mich. 49085-2396 USA). Based on the assay of nutrient and AIA in feed, excreta, and ileal content, the nutrient digestibility was determined.

[3] = Example 1: apparent sinapic acid digestibility (HPLC of feed, excreta, digesta); assay type: in vivo, broiler chickens; conditions: dietary sinapic acid 0.025-0.10%
Protocol: as §1
The analysis of sinapic acid in feed, excreta and digesta samples was conducted by HPLC using a reversed-phase column under the fluorescence detection method. The mobile phase was isocratic, based on 6% MeOH solution with 20 mmol K2HPO4 as basic buffer. For feed and excreta samples, the analysis was conducted at pH 9.5, however, for ileal and cecal samples, the pH was changed to 9 to obtain better background separation and chromatograms.

[4] = Example 3: feed consumption, weight gain and diet AME; assay type: in vivo, broiler chickens; conditions: sinapic acid 0.025% in diet
Protocol: Broiler chickens were fed a corn-soybean meal based diet either unsupplemented or supplemented with sinapic acid at a level of 0.025%, 0.05% or 0.1%. After the supplementation period, microbial analysis was conducted. This Example was designed to confirm the results of Example 2, to assess effects on microbial community, and to repeat the VFA measurement by increasing the chick numbers within the replication.
Ninety-six ([…]) male broiler chicks (Peterson X Hubbard) were randomly assigned to four treatments, with six birds in each replication and four replications for each treatment. A corn-soybean based diet served as a control, while another three diets were supplemented with graded levels of sinapic acid (0.025, 0.05 and 0.10%). Bird management was as previously described in Example 1. Volatile fatty acid measurement was conducted as described in Example 2, except that digesta was pooled from six birds per replication.

[5] = system: bacterial populations in the ileum and ceca; experiment: Example 2: volatile fatty acid content of ileal and cecal digesta (0.05-0.20% sinapic acid); assay type: in vivo, broiler chickens; conditions: sinapic acid 0.05-0.20% in diet
Protocol: Bird management and diet composition were as described in Example 1. Volatile Fatty Acid (VFA) Measurement. The status of bacterial populations in the ileum and ceca of experimental birds was assessed by examining VFA production. The birds were killed by lethal injection with T-61TM(Euthanasia solution) and the ileal and cecal digesta of three birds within each replication were collected in a well-sealed plastic centrifuge tube and then frozen at -20° C. Ileal digesta were collected from the terminal ileum (distal half excluding the last 2 cm anterior from the ceca). Samples within a replication were pooled and mixed well prior to VFA measurement. Analyses of VFA (acetic, propionic, isobutyric, butyric, isovaleric, and valeric acid) were conducted by Gas Chromatography (GC) (Varian Star 3400) using a StabilwaxTM-DA column (0.25 mm ID, 0.25 μm […] Corporation, 110 Benner Circle, Bellefonte Pa., 16823-8812 USA) and based on the procedure of Choct et al. (Br. Poult. […] A concentration of 2 mmol/L is acceptable for the internal standard in intestinal content samples. One ml of standard solution was added to 0.2 (cecal) or 0.5 (ileal) g of sample and vortexed until well-mixed. The mixture was then centrifuged at 28,000 g for 10 minutes and the supernatant pipetted into GC vials for analysis. Statistical Analyses. […]

[6] = system: cecal microbial community; experiment: Example 3: microbial community assay, % G+C profile of cecal digesta; assay type: in vivo, broiler chickens; conditions: dose dependent, sinapic acid 0.025-0.10% in diet

- sinapic acid in the cecal digesta [3]: no sinapic acid found
SMILES: COc1cc(C=CC(=O)O)cc(OC)c1O [Sinapic Acid, 4-hydroxy-3,5dimethyoxy-cinnamic acid]
- Feed intake/bird ([1]; sinapic acid 0.025% in diet): 781^a g
- Gain ([1]; sinapic acid 0.025% in diet): 561 g
- Gain/feed ([1]; sinapic acid 0.025% in diet): 0.72
- Feed intake/bird ([1]; sinapic acid 0.05% in diet): 738^ab g
- Gain ([1]; sinapic acid 0.05% in diet): 545 g
- Gain/feed ([1]; sinapic acid 0.05% in diet): 0.74
- Feed intake/bird ([1]; sinapic acid 0.10% in diet): 689^b g
- Gain ([1]; sinapic acid 0.10% in diet): 491 g
- Gain/feed ([1]; sinapic acid 0.10% in diet): 0.71
- Fecal protein digest. ([2]; sinapic acid 0.025% in diet): 68.5%
- Ileal protein digest. ([2]; sinapic acid 0.025% in diet): 81.5%
- AME (apparent metabolizable energy) ([2]; sinapic acid 0.025% in diet): 3412 kcal/kg
- Fecal protein digest. ([2]; sinapic acid 0.05% in diet): 66.3%
- Ileal protein digest. ([2]; sinapic acid 0.05% in diet): 78.8%
- AME (apparent metabolizable energy) ([2]; sinapic acid 0.05% in diet): 3418 kcal/kg
- Fecal protein digest. ([2]; sinapic acid 0.10% in diet): 66.5%
- Ileal protein digest. ([2]; sinapic acid 0.10% in diet): 80%
- AME (apparent metabolizable energy) ([2]; sinapic acid 0.10% in diet): 3442 kcal/kg
- feed consumption [4]: increased
- increase in diet AME [4]: 2%
- increase in weight gain [4]: 6%
- reduction of acetic acid level in cecal contents compared with control [5]: 15-20%
- reduction of total VFA level in cecal contents compared with control [5]: 15-20%
- amounts of cecal microbes in the range % G+C 40-54 [6]: decreased
- relative abundance of cecal bacteria in the range % G+C 20-30 [6]: increased
- relative abundance of cecal bacteria in the range % G+C 55-69 [6]: increased
